Row | Structure (SMILES) | logP
1 | CN(C)/N=N/c1ccc([N+](=O)[O-])cc1 | 3.25
2 | CCCCCN(C)N=Nc1ccc(C(N)=O)cc1 | 3.18
3 | CCCCCN(C)N=Nc1ccc(S(=O)(=O)Nc2nccc(C)n2)cc1 | 2.34
4 | CCCC(C)N(C)N=Nc1ccc(C(=O)O)cc1 (stereo not given) | 1.35
5 | CCCCCN(C)N=Nc1ccc(C(=O)O)cc1 | 1.46
6 | CCOC(=O)c1ccc(/N=N/N(C)C)cc1 | 3.66
7 | CN(C)/N=N/c1ccccc1C(=O)O | -0.28
8 | C=CCN(CC=C)N=Nc1ccccc1C(=O)O | 0.62
9 | CCNN=Nc1ccc(C(N)=O)cc1 | 1.19
10 | CCCN(C)N=Nc1ccc(C(N)=O)cc1 | 2.17
11 | COC(=O)c1ccc(/N=N/N(C)C)cc1 | 3.22
12 | CN(C)/N=N/c1ccc(S(C)(=O)=O)cc1 | 1.59
13 | CN(C)/N=N/c1ccc(C(F)(F)F)cc1 | 4
14 | CCCCN(C)/N=N/c1ccc(C(N)=O)cc1 | 2.68
15 | CNN=Nc1ccc(C(N)=O)cc1 | 0.48
16 | CCCCCN(C)N=Nc1ccc(S(=O)(=O)Nc2ccccn2)cc1 | 2.16
17 | CCN(CC)N=Nc1ccc(S(C)(=O)=O)cc1 | 2.6
18 | CC(C)N(N=Nc1ccc(C(N)=O)cc1)C(C)C | 3
19 | CC(=O)N(C)N=Nc1ccc(C(N)=O)cc1 | 1.37
20 | COc1ccc(/N=N/N(C)C)cc1 | 2.99

Row | Structure (SMILES) | logP
21 | CCN(C)/N=N/c1ccccc1C(N)=O | 2.59
22 | CCN(CC)/N=N/c1ccc(C(N)=O)cc1 | 2.26
23 | COC(=O)c1cccc(/N=N/N(C)C)c1 | 3.12
24 | CN(C)/N=N/c1cccc(C(N)=O)c1 | 1.3
25 | CN(C)N=Nc1ccc(S(=O)(=O)Nc2ccno2)cc1 | 0.42
26 | CN(CC(F)(F)F)N=Nc1ccc(C(N)=O)cc1 | 1.86
27 | CCN(CC)N=Nc1cc([N+](=O)[O-])cc([N+](=O)[O-])c1 | 4.69
28 | CN(C)/N=N/c1cccc(C(=O)O)c1 | -0.38
29 | CCN(CC)N=Nc1ccccc1C(=O)O | 1.49
30 | CCN(C)N=Nc1ccccc1C(=O)O | 0.11
31 | CCCCN(C)/N=N/c1ccccc1C(N)=O | 3.52
32 | COC(=O)c1ccccc1/N=N/N(C)C | 2.51
33 | CCN(CC)N=Nc1ccccc1C(N)=O | 2.96
34 | CN(Cc1ccccc1)N=Nc1ccc(C(N)=O)cc1 | 2.77
35 | CN(C)N=Nc1ccc(S(=O)(=O)CCO)cc1 | 1.15
36 | CCCCN(C)N=Nc1ccc(C(=O)O)cc1 | 0.96
37 | CCCN(C)N=Nc1ccc(C(=O)O)cc1 | 0.46
38 | CN(C)/N=N/c1ccc(S(N)(=O)=O)cc1 | 0.85
39 | CCN(C)/N=N/c1ccc(C(N)=O)cc1 | 1.69
40 | CCOC(=O)c1ccc(N=NN(C)CCO)cc1 | 2.66
